Test system: mouse embryonic day 16 forebrain (MEF) cells
Test: normalized renilla luciferase activity (cell survival / relative cytotoxicity)
Type: cell-based
Conditions: three days, FIG. 1D
Method: Luciferase assays were performed using a noncommercial dual luciferase enzyme assay system (Dyer et al., 2000, Anal Biochem). In this system, a co-transfection with pDCX-Luci and a control vector driving Renilla-luciferase under the CMV promoter was performed. The two different luciferases have different specific substrates and, therefore, the DCX regulatory region driven firefly luciferase activity can be distinguished from CMV driven Renilla-luciferase. For analysis, the firefly luciferase activity was normalized against the CMV driven Renilla-luciferase. […]
Elmer, Calif., USA) according to the manufacturer's instructions. Then, 100 μl of freshly prepared Renilla assay solution consisting of 1.1 M NaCl (VWR, Vienna, Austria), 2.2 mM Na2EDTA, 0.22 M KH2PO4 pH 5.1 (Merck, Darmstadt, Germany), 0.44 mg/mL BSA (Biomol, Hamburg, Germany), 1.3 mM NaN3 (Sigma-Aldrich, Taufkirchen, Germany), […] coelenterazine (p.j.k., Kleinblittersdorf, Germany) per well were added and measurements were performed using the Victor™ X Multilable Plate Reader as described above. Data were normalized the following way: i) firefly (FF) luciferase activity is related to the renilla (R) luciferase activity; and ii) the FF/R values of the individual samples are related to the FF/R value obtained by stimulation with the control medium and expressed as x-fold change compared to control. […]

| SMILES | normalized renilla activity (approximate measure of cell survival / relative cytotoxicity) |
| --- | --- |
| COc1cc2c(c(O)c1C(=O)/C=C/c1ccc(O)cc1)CCC(C)(C)O2 [Compound 1b, (E)-1-(5-hydroxy-7-methoxy-2,2-dimethylchroman-6-yl)-3-(4-hydroxyphenyl)prop-2-en-1-one] | significantly higher than that exerted by the reference compounds xanthohumol and osajin |
| COc1cc2c(c(O)c1C(=O)/C=C/c1ccc(O)cc1)C=CC(C)(C)O2 [Compound 1a, (E)-1-(5-hydroxy-7-methoxy-2,2-dimethyl-2H-chromen-6-yl)-3-(4-hydroxyphenyl)prop-2-en-1-one] | significantly higher than that exerted by the reference compounds xanthohumol and osajin |
